Results from ChEMBL document CHEMBL1144646, “Imidazole moiety replacements in the 3-(1H-benzo[d]imidazol-2-yl)pyridin-2(1H)-one inhibitors of insulin-like growth factor receptor-1 (IGF-1R) to improve cytochrome P450 profile” (Bioorg Med Chem Lett, 2007).

Columns and labels:
[1] = target: T1, Cytochrome P450 1A2 (Homo sapiens, UniProt P05177); assay: Inhibition of CYP1A2 in microsomes; format: ADME
T1 sequence (P05177 whole entry): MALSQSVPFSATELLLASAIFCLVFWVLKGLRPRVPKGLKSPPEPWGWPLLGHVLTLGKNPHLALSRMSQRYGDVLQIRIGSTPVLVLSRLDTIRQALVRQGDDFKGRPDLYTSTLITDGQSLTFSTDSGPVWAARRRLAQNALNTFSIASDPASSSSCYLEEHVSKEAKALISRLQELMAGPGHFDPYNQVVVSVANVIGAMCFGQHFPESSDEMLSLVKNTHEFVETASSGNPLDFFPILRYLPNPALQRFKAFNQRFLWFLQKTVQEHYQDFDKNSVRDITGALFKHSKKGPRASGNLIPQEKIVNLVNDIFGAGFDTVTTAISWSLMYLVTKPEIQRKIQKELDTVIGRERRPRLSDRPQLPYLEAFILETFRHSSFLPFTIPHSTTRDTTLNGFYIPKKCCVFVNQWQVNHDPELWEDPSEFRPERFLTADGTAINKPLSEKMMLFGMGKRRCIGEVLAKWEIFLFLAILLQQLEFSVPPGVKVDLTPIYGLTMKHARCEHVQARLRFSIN

[2] = target: Cytochrome P450 3A4 (Homo sapiens, UniProt P08684); assay: Inhibition of CYP3A4 in microsomes
Chain of Cytochrome P450 3A4 (P08684 whole entry): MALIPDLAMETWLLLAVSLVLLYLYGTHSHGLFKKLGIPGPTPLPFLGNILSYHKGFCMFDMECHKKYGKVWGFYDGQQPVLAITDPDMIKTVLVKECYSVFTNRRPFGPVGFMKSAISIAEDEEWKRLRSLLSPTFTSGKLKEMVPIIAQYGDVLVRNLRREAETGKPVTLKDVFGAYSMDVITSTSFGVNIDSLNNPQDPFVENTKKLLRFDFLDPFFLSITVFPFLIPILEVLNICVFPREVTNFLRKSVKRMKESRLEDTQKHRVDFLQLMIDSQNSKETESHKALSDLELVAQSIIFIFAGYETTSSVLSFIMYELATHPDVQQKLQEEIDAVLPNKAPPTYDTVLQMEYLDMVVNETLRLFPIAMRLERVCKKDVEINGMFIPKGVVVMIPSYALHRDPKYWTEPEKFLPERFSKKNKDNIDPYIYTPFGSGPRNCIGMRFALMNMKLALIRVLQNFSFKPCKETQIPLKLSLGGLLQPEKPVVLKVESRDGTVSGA

[3] = target: Cytochrome P450 2C9 (Homo sapiens, UniProt P11712); assay: Inhibition of CYP2C9 in microsomes; format: ADME
Chain of Cytochrome P450 2C9 (P11712 whole entry): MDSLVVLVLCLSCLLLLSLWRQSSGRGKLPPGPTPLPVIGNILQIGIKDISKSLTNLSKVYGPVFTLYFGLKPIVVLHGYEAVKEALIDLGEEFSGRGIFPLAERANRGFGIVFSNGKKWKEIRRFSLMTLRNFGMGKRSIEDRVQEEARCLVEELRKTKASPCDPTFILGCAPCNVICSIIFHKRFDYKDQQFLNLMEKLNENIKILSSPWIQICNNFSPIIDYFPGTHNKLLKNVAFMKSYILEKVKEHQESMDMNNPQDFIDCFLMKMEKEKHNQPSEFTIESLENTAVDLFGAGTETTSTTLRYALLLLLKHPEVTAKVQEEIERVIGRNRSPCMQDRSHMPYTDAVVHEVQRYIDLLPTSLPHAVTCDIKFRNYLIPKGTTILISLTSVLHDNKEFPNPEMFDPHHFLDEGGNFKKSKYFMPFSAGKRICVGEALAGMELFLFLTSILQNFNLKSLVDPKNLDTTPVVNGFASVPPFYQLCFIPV

[4] = target: Cytochrome P450 2C19 (Homo sapiens, UniProt P33261); assay: Inhibition of CYP2C19 in microsomes; format: ADME
Chain of Cytochrome P450 2C19 (P33261 whole entry): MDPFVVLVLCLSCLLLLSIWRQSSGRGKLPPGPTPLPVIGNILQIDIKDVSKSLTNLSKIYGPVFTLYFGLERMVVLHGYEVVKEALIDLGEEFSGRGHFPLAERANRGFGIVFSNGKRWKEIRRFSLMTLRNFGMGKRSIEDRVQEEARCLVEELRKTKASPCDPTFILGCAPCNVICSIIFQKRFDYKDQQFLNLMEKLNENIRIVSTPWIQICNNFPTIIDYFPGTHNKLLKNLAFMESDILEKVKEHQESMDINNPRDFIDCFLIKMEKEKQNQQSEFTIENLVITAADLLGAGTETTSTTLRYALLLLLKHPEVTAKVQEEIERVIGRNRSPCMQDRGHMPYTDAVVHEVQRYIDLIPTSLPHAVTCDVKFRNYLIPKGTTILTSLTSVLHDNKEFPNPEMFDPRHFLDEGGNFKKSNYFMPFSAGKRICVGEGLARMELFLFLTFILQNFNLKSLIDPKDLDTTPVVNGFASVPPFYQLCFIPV

[5] = target: Cytochrome P450 2D6 (Homo sapiens, UniProt P10635); assay: Inhibition of CYP2D6 in microsomes; format: ADME
Chain of Cytochrome P450 2D6 (P10635 whole entry): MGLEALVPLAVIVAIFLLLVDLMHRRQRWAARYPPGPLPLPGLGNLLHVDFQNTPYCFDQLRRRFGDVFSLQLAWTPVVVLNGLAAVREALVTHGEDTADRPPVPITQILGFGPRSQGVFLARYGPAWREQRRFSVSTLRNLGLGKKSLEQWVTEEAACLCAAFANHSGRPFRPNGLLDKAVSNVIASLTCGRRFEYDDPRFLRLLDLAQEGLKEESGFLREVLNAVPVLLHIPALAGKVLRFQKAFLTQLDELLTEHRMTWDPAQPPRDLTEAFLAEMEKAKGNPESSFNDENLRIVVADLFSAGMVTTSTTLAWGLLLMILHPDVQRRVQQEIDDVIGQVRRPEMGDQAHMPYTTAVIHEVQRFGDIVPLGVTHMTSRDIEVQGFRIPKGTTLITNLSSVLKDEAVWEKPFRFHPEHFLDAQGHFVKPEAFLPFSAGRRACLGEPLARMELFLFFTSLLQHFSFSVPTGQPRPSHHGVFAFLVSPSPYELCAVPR

| Compound | IC50 [1] [µM] | IC50 [2] [µM] | IC50 [3] [µM] | IC50 [4] [µM] | IC50 [5] [µM] |
| --- | --- | --- | --- | --- | --- |
| Cc1cc(C(=O)N(C)C)cc2[nH]c(-c3c(NCC(O)c4cccc(Cl)c4)cc[nH]c3=O)nc12 (configuration not stated) | 15 | 2.2 | 2.8 | 1.7 |  |
| Cc1cc(-n2ccnc2)cc2[nH]c(-c3c(NCC(O)c4cccc(Cl)c4)cc[nH]c3=O)nc12 (configuration not stated) | < 0.04 | < 0.046 | < 0.04 | < 0.04 |  |
| Cc1cc(C(=O)NC2CCCCC2)cc2[nH]c(-c3c(NCC(O)c4cccc(Cl)c4)cc[nH]c3=O)nc12 (configuration not stated) | 59 | 11 | 6.6 | 1.3 |  |
| Cc1cc(C2=NCCCN2)cc2[nH]c(-c3c(NCC(O)c4cccc(Cl)c4)cc[nH]c3=O)nc12 (configuration not stated) | 20 | 16 | 100 | 8.5 |  |
| CNC(=N)c1cc(C)c2nc(-c3c(NCC(O)c4cccc(Cl)c4)cc[nH]c3=O)[nH]c2c1 (configuration not stated) | 25 | 15 | 76 | 3.9 |  |
| COc1ccc(-c2cc(C)c3nc(-c4c(N[C@H](CO)Cc5ccccc5)cc[nH]c4=O)[nH]c3c2)cc1 | 12 | 6.8 | 11 | 2.2 |  |
| Cc1cc(-c2ccccc2)cc2[nH]c(-c3c(N[C@H](CO)Cc4ccccc4)cc[nH]c3=O)nc12 | 0.58 | 3.6 | 2.3 | 0.53 |  |
| Cc1cccc2[nH]c(-c3c(NCC(O)c4cccc(Cl)c4)cc[nH]c3=O)nc12 (configuration not stated) | 0.38 | 0.71 | 1.5 | 0.26 |  |
| Cc1cc(-n2ccnc2)cc2nc(-c3c(NCc4ccccn4)cc[nH]c3=O)[nH]c12 | < 0.03 | 0.08 | < 0.03 | 0.1 | 5.7 |
| Cc1cc(Br)cc2[nH]c(-c3c(N[C@H](CO)Cc4ccccc4)cc[nH]c3=O)nc12 | 0.052 | 3.1 | 0.72 | 0.32 |  |
| Cc1cc(C(=O)NC2CC2)cc2[nH]c(-c3c(NCC(O)c4cccc(Cl)c4)cc[nH]c3=O)nc12 (configuration not stated) | 93 | 10 | 8.1 | 3.5 |  |
| Cc1cc(C(=O)NC2CCCC2)cc2[nH]c(-c3c(NCC(O)c4cccc(Cl)c4)cc[nH]c3=O)nc12 (configuration not stated) | 9.8 | 1.6 | 3.5 | 0.48 |  |
| Cc1cc(-c2ccc(F)cc2)cc2[nH]c(-c3c(N[C@H](CO)Cc4ccccc4)cc[nH]c3=O)nc12 | 3.2 | 6.3 | 4 | 1 |  |
| Cc1cc(C2=NC(C)CN2)cc2[nH]c(-c3c(NCC(O)c4cccc(Cl)c4)cc[nH]c3=O)nc12 (configuration not stated) | 10 |  | 67 | 4.7 |  |
| Cc1c[nH]c(-c2cc(C)c3[nH]c(-c4c(NCC(O)c5cccc(Cl)c5)cc[nH]c4=O)nc3c2)n1 (configuration not stated) | 5.8 | 0.36 | 7.8 | 2 |  |
| Cc1cc(C2=NC(C)(C)CN2)cc2[nH]c(-c3c(NCC(O)c4cccc(Cl)c4)cc[nH]c3=O)nc12 (configuration not stated) | 11 | 13 | 47 | 5.1 |  |
| Cc1cc(-n2ccnc2)cc2[nH]c(-c3c(N[C@H](CO)Cc4ccccc4)cc[nH]c3=O)nc12 | < 0.04 | 0.06 | < 0.04 | < 0.04 | 0.56 |
| Cc1cc(C2=NCCN2C)cc2[nH]c(-c3c(NCC(O)c4cccc(Cl)c4)cc[nH]c3=O)nc12 (configuration not stated) | 53 | 35 | 91 | 17 |  |
| CNC(=O)c1cc(C)c2nc(-c3c(NCC(O)c4cccc(Cl)c4)cc[nH]c3=O)[nH]c2c1 (configuration not stated) | 21 | 3.7 | 2.9 | 2.1 |  |
